This note sets out measurements from the NIST ThermoML archive (doi:10.1016/j.fluid.2014.09.016).

The conditions of the data set: 298.15 K; 101.33 kPa; Liquid; Pycnometric method.

± gives the expanded uncertainty stated by the source.

What is called mass density is the mass of a sample divided by its volume. Take `COP(=O)([O-])OC.Cn1cc[n+](C)c1` [1,3-dimethylimidazolium dimethylphosphate]: the mass density stood at 1257.8 ± 1.6 kg/m3.
Take `CCOP(=O)([O-])OCC.CCn1cc[n+](C)c1` [1-ethyl-3-methylimidazolium diethyl phosphate]: the mass density was 1146.1 ± 1.4 kg/m3.
